One assay deals with IRF1 gene expression. Nature of the assay: RNA-sequencing of IRF1 gene expression in SH-Sy5y cells upon ML228 treatment. Format: cell-based, human. The conditions noted are these: SH-Sy5y cells treated with AAVS1 sgRNA, ML228 0.5 μM for 8 h versus DMSO control.
Assay [1] concerns HSV-1. Format: cell-based, HSV-1 KOS strain.
For assay [2], the system named is HSV-1. Nature of the assay: virus plaque assay of supernatant from HSV-1 infected mouse primary neurons. Format: cell-based, HSV-1 KOS strain. The conditions noted are these: 0.5 μM, 2 h pre-treatment, MOI 3, 72 h, versus DMSO control. How it is done: (§1) The isolated mouse primary-neurons were pre-treated with ML228 and DMSO at a concentration of 0.5 μM for 2 hours and were infected with HSV-1, at a MOI of 3 and HSV-2, at a MOI of 2. After 4 hours infection, the virus was removed and the cells were incubated with ML228 and DMSO for 72 hours. After 72 hours, the supernatant was used for virus plaque assay and the cells were lysed for RNA-extraction and RT-qPCRt.
(§2) Supernatants collected from mouse primary neurons treated with ML228 and DMSO and infected with HSV-1 and HSV-2, were used for virus titer in a virus plaque assay. For this purpose, Vero cells at a density of 1.2×10^6 cells/petri dish, in DMEM were seeded and left overnight in order to settle and to form a monolayer. The next day, cells were infected with 100 μL of supernatant in appropriate serial dilutions. The cells were incubated for 1 hour at 37° C. Subsequently, 5 ml DMEM supplemented with 0.2% normal human immunoglobin (Octapharma) were added to the cells. The plates were incubated for 2-3 days at 37° C. and stained with 0.03% methyl blue. The plaques were counted and the results were represented as PFU (plaque-forming units) per sample.

Assay [3] relates to HSV-2. Nature of the assay: RT-qPCR of HSV-2 glycoprotein B RNA in infected mouse primary neurons. The conditions noted are these: 0.5 μM, 2 h pre-treatment, MOI 2, 72 h, versus DMSO control. The assay is classed as cell-based, HSV-2 333 strain. How it is done: as §1
(§3) The RT-qPCR results were obtained by total RNA extraction using the High Pure RNA Isolation kit (Roche) according to the manufacturer's instructions. RNA quality and concentration was assessed using Nanodrop spectrometry (Thermo Fisher). Viral replication was analysed by measuring RNA level against HSV-(1/2) Glycoprotein B (gB) using Brilliant III Ultra-Fast SYBR Green QRT-PCR Master Mix kit (Agilent Technology). CT values were normalized versus 18srRNA (ACT) in HSV-(1/2) infection.

Assay [4] has as its system HSV-1. The assay is classed as cell-based, HSV-1 KOS strain. The source holds these as a separate data set.
For the next assay, the system named is VSV. The assay is classed as cell-based, Indiana strain VSV. The conditions noted are these: SH-SY5Y cells, 0.5 μM, 2 h pre-treatment, MOI 0.001, 18 h; versus DMSO control.
The test system of assay [5] is HSV-2. Format: cell-based, HSV-2 333 strain.
Assay [6] has as its system HSV-2. Format: cell-based, HSV-2 333 strain. This is another data set of the same source.
Another assay relates to EMCV. The assay is classed as cell-based, FA strain EMCV.
Assay [7] deals with HSV-2. Nature of the assay: virus plaque assay of supernatant from HSV-2 infected mouse primary neurons. Format: cell-based, HSV-2 333 strain. The conditions noted are these: 0.5 μM, 2 h pre-treatment, MOI 2, 72 h, versus DMSO control. How it is done: as §1, §2
The subject of assay [8] is HSV-1. In words: RT-qPCR of HSV-1 glycoprotein B RNA in infected mouse primary neurons. The assay is classed as cell-based, HSV-1 KOS strain. The following applies: 0.5 μM, 2 h pre-treatment, MOI 3, 72 h, versus DMSO control. On the procedure: as §1, §3
For the next assay, the system named is Influenza A virus. Nature of the assay: RT-qPCR of Influenza A virus matrix 2 (M2) RNA in infected SH-SY5Y cells. The following applies: 1 μM, 2 h pre-treatment, MOI 0.1, 48 h, versus DMSO control. The assay is classed as cell-based, Influenza virus A (H1N1) strain PR8.

Entries after “also recorded” stand apart in the source; their conditions may differ. Read-outs that look alike come from different tables or passages of the source.

In the case of `c1ccc(-c2ccc(CNc3nc(-c4ccccn4)nnc3-c3ccccc3)cc2)cc1` [ML228], in the assay on IRF1 gene expression, the “IRF1 gene expression, log 2 fold change” value amounted to 0.6842. For the same compound, the “number of plaque forming units (PFU) in titer, HSV-1” value in the assay with HSV-1 [1] is on record as “completely counteract the virus infection; also recorded: significantly decreased”; in the assay with HSV-1 [2] it was “significantly reduced; also recorded: significantly decreased”. Moreover, the “HSV-2 replication (virus gB RNA level)” value in the assay on HSV-2 [3] is reported as “severely inhibited; also recorded: significantly decreased”; in the assay on HSV-2 [6] it was “significantly decreased”. Moreover, the “HSV-1 replication (virus gB RNA level)” value with HSV-1 [4] is listed as “significantly decreased”; with HSV-1 [8], “reduction of the viral replication; also recorded: significantly decreased”. Moreover, in the assay with VSV, the “VSV titer / virus cytopathic effect (TCID50%)” value is recorded as “significantly reduces the virus cytopathic effect; also recorded: significantly decreased”. Besides, the figures for the “number of plaque forming units (PFU) in titer, HSV-2” value in the assay with HSV-2 [5] and with HSV-2 [7] were “completely counteract the virus infection; also recorded: significantly decreased” and “significantly less plaque-forming units; also recorded: significantly decreased”, respectively. Besides, the “EMCV titer / virus cytopathic effect (TCID50%)” value in the assay on EMCV is recorded as “significantly decreased”. In addition, in the assay on Influenza A virus, the “Influenza A virus replication (virus M2 RNA level)” value is on record as “also reduced; also recorded: significantly decreased”.

Values taken from US20240350503A1, “COMPOUNDS FOR TREATMENT OF VIRAL INFECTIONS BY NEUROTROPIC VIRUS” (priority 2021, published 2024).
